# Data published in patent US12329159B2, “Systems and methods for use of chlorine dioxide in cultivation and post-harvest applications” (Prokure Solutions, LLC, priority 2018, dated 2025).
# “And” between values parts separate entries of the source, which are not always exact repeats. Equal values may be shown once.
# Columns and labels:
# Torula = assay: Spore trap testing, treated greenhouse: Torula; type: in vivo; details: 1.2 mg chlorine dioxide gas per hour per 4000 cubic feet
# Experimental: (§1) Very low-level chlorine dioxide protection using about 3 mg chlorine dioxide gas per hour for every 4000 cubic feet (50-gram ProKure® D Extended Release Gas product (ProKure® Solutions), 2000 mg total over 4 weeks) was tested to determine the effects on reduction and prevention of fungal microorganism counts. The rate of chlorine dioxide production will vary depending on the relative humidity (RH) in the room. The above rate is for RH range of 40-60%. Each 3 mg chlorine dioxide per hour product (50-gram) unit will cover 4000 cubic feet of space. The 4000 cubic foot volume is recommended for safety reasons. This volume of space insures that the concentration of the gas remains below the OSHA regulated Permissible Exposure Limit (PEL) which is 0.1 ppmv (time weighted average (TWA) over a 8-hours per day or 40-hour work week) and the Short Term Exposure Limit (STEL) which is 0.3 ppmv (TWA over any 15-minute period) for chlorine dioxide.
# (§2) All data is based on the dose described a unless otherwise noted. The spore counts per cubic meter prior to treatment are compared to spore counts per cubic meter post treatment with the treatment time indicated. […]
# (§3) Treatment was performed using 1.2 mg chlorine dioxide gas per hour per 4000 cubic feet. […] The fungus could not be detected by visual inspection after about 30 days of treatment. […]
# Cannabis plants [1] = assay: Toxicity responses of Cannabis plants to foliar applications of chlorine dioxide; type: in vivo; details: for plants with damage to floral tissue (discoloration): after the third application
# Experimental: Regular and excessive rates of chlorine dioxide dissolved in water were sprayed up to five times at 2-day intervals on two varieties of Cannabis plants in both vegetative and flowering stages to determine if plant damage would result. Adverse effects were assessed based on visible discoloration or chlorosis of leaves and/or flowers. All plants were monitored for several days after the final application of chlorine dioxide.
# Experiments were performed in a greenhouse with temperatures between 70° F. and 80° F. Plants were potted in soil and appeared healthy and undamaged prior to treatment. All plants received the same amount of water and nutrients as controls, delivered via soil drenching. All plants, including controls, were the same age. At the beginning of the experiments, both flowering and vegetative plants had 3 weeks of the respective growth stage remaining.
# Concentrations of chlorine dioxide tested include 0, 50, 100, and 500 ppm. All chlorine dioxide solutions were prepared from 500 ppm stock solution, mixed in containers and used immediately. Each of the rates was tested in triplicate with separate plants in both stages of growth and with Cannabis indica and Cannabis sativa Cannabis plants. A common trigger sprayer bottle with the tip adjusted to a mist setting was used to apply treatments. Plants were sprayed until all leaves and stems were visibly wet. Each treatment rate was applied at 2-day intervals, and the number of applications ranged from 1 to 5 depending on the amount of damage that occurred to the plant.
# Damage was assessed 2 days after an application and prior to the next application. Treated plants were assessed for damage 6 days after the 5th and final spray treatment. Observed symptoms associated with the application of chlorine dioxide were necrosis of leaf tissue appearing as lesions between and across leaf veins and at leaf margins. Early symptoms included yellowing of leaves. Some lesions had dark brown borders and/or appeared desiccated.
# Chaetomium = assay: Spore trap testing, treated greenhouse: Chaetomium; type: in vivo; details: 1.2 mg chlorine dioxide gas per hour per 4000 cubic feet
# Experimental: as §1, §2, §3
# Oidium = assay: Spore trap testing, treated greenhouse: Oidium; type: in vivo; details: 1.2 mg chlorine dioxide gas per hour per 4000 cubic feet
# Experimental: as §1, §2, §3
# Ulocladium = assay: Spore trap testing, treated greenhouse: Ulocladium; type: in vivo; details: 1.2 mg chlorine dioxide gas per hour per 4000 cubic feet
# Experimental: as §1, §2, §3
# Fusarium = assay: Spore trap testing, treated greenhouse: Fusarium; type: in vivo; details: 1.2 mg chlorine dioxide gas per hour per 4000 cubic feet
# Experimental: as §1, §2, §3
# total spores = assay: Spore trap testing, treated greenhouse: Total spores; type: in vivo; details: 1.2 mg chlorine dioxide gas per hour per 4000 cubic feet
# Experimental: as §1, §2, §3
# Cannabis plants [2] = assay: Effects of chlorine dioxide on vegetative growth (grow tent, leaf count); type: in vivo; details: about 3 mg of chlorine dioxide per hour, 10 days; for Leaf Count # of new leaves / Leaf Count Final: Experimental tent, 240 cubic feet
# Experimental: Experiments were performed to determine the effects of using a continuous release dose of about 3 mg of chlorine dioxide per hour on the vegetative growth of Cannabis plants.
# Cannabis plants were placed in a grow tent and grown under artificial lighting for 10 days. Leaf counts were performed prior to placing in the tent and again after 10 days. Two separate grow tents were used, one for the experiment and one as the control. The total leaf count was compared between the experimental and control plants. Temperature and relative humidity measurements were taken 3 times per day to ensure both tents maintained the same environmental conditions.
# A pouch was hung from the top of the inside of the experimental tent. The pouch dispensed approximately 3 mg of chlorine dioxide per hour for the duration of the trial (10 days). Within the experimental tent the Cannabis plants were exposed to about 720 mg of gaseous chlorine dioxide over the 10-day period.
# Three Cannabis plants were placed into each tent. Two of the plants were of a Cannabis indica variety, and one plant was a Cannabis sativa variety. The photoperiod used in both tents was 20 hours with lights on followed by 4 hours with lights off. All watering, nutrients, pest control, etc. were identical for all plants.
# [3] = system: unidentified fungal strain having an appearance similar to powdery mildew; assay: Visual inspection of fungal infection on greenhouse mother plants; type: in vivo; details: 1.2 mg chlorine dioxide gas per hour per 4000 cubic feet, 4500 mother plants
# Experimental: An experimental trial was performed in a greenhouse with approximately 1×10^6 cubic feet of space holding 4500 mother plants. All plants were potted in soil and were approximately 5-7 feet tall, depending on whether cuttings had recently been taken for clone propagation. Plants evidenced visible signs of infection with an unidentified fungal strain having an appearance similar to powdery mildew. The fungus was actively growing and covered most leaves and major stalks. The fungus was a strain that only infected the surface of the plants and was not systemic in the plants.
# Treatment was performed using 1.2 mg chlorine dioxide gas per hour per 4000 cubic feet. Spore trap testing was performed pre-treatment and at seven days post-treatment. The fungus could not be detected by visual inspection after about 30 days of treatment. Treatment continued as a preventative measure, with further spore trap testing at 45 days post treatment. Spore trap data follows below in Table 5.
# Aureobasidium = assay: Spore trap testing, treated greenhouse: Aureobasidium; type: in vivo; details: 1.2 mg chlorine dioxide gas per hour per 4000 cubic feet
# Experimental: as §1, §2, §3
# Basidiospores = assay: Spore trap testing, treated greenhouse: Basidiospores; type: in vivo; details: 1.2 mg chlorine dioxide gas per hour per 4000 cubic feet
# Experimental: as §1, §2, §3
# Ascospores = assay: Spore trap testing, treated greenhouse: Ascospores; type: in vivo; details: 1.2 mg chlorine dioxide gas per hour per 4000 cubic feet
# Experimental: as §1, §2, §3
# [4] = system: visible mold growing on flowers; assay: Trial 3: gaseous chlorine dioxide treatment of flowering plants with visible mold; type: in vivo; details: 0.45 mg chlorine dioxide gas per cubic foot, 18 hours
# Experimental: A third trial was performed in a 33400 cubic foot space with 840 flowering plants at week eight of an eight-week cultivation cycle. Most plants had visible mold growing on flowers. The chlorine dioxide dose was 0.45 mg chlorine dioxide gas per cubic foot of space. Contact time was 18 hours, the room was maintained in darkness for the first 12 hours, and grow lights came on for the last 6 hours contact time, but the chlorine dioxide gas concentration monitoring was only performed for about 10 hours.
# The HVAC system for the 33400 cubic foot space that had 840 flowering plants in the last week of flower failed. Within hours the temperature and humidity increased, and visible mold growth was found on most of the flower within 24 hours. To treat the mold and potentially prevent the loss of over 100 pounds of Cannabis flower product, a dose of 0.45 mg chlorine dioxide gas per cubic foot was dispensed into the space (14× ProKure® G Fast Release Gas packets (25-gram) (ProKure® Solutions)). […] Essentially, it was never above the detection limit of the sensor (0.5 ppmv). […] An odor would be expected for this application rate, so the lack of odor provides further evidence that the concentration of chlorine dioxide remained below the odor threshold of about 0.03 to 0.1 ppmv. […]
# [5] = cited from earlier work
# Bipolaris/Drechslera = assay: Spore trap testing, treated greenhouse: Bipolaris/Drechslera; type: in vivo; details: 1.2 mg chlorine dioxide gas per hour per 4000 cubic feet
# Experimental: as §1, §2, §3
# Cladosporium = assay: Spore trap testing, treated greenhouse: Cladosporium; type: in vivo; details: 1.2 mg chlorine dioxide gas per hour per 4000 cubic feet
# Experimental: as §1, §2, §3
# Smuts/Myxomycetes = assay: Spore trap testing, treated greenhouse: Smuts/Myxomycetes; type: in vivo; details: 1.2 mg chlorine dioxide gas per hour per 4000 cubic feet
# Experimental: as §1, §2, §3
# Alternaria = assay: Spore trap testing, treated greenhouse: Alternaria; type: in vivo; details: 1.2 mg chlorine dioxide gas per hour per 4000 cubic feet
# Experimental: as §1, §2, §3
# Cannabis plants [6] = assay: Toxicity responses of Cannabis plants to applications of gaseous chlorine dioxide; type: in vivo
# Source text: Two varieties of Cannabis plants in both vegetative and flowering stages were exposed to various amounts of chlorine dioxide gas to determine if plant damage would result. Adverse effects were based on discoloration or chlorosis type damage to leaves and/or flowers. Leaves of each plant were collected prior to experiments and again 2 days post treatment for tissue analysis. Leaf samples were sent to a third-party laboratory for analysis of nutrients and total chloride (Cl^−). Tissue analysis of leaves pre- and post-treatment were compared to determine uptake of chlorine dioxide and/or its by-products. Control plants were used for visual comparison in determining plant damage. All plants were monitored for several days after application of chlorine dioxide gas. Plants were potted in soil and appeared healthy and undamaged unless otherwise noted. All plants including controls were of the same age for each growth stage. • The chlorine dioxide gas exposure was based on concentration with units of mg of chlorine dioxide per cubic foot of space.
# A first trial was performed in a space of 1550 cubic feet with four healthy plants in the space, two of which were in flower at week 5 of 8, and the other two of which had one week of vegetative stage remaining. The chlorine dioxide dose was 1.9 mg chlorine dioxide per cubic foot of space (one 25 g ProKure® G Fast Release Gas packet (ProKure® Solutions, Phoenix, AZ) and 4 liters of 500 ppm chlorine dioxide solution). Contact time was 18 hours, and the room was maintained in darkness for the duration of the contact time.
# A second trial was performed in a space of about 33400 cubic feet with 840 flowering plants at week eight of an eight-week cultivation cycle. All plants were healthy. […] The chlorine dioxide dose was 0.45 mg chlorine dioxide gas per cubic foot of space. Contact time was 18 hours, and the room was maintained in darkness for the first 12 hours, and grow lights came on for the last 6 hours of contact time, but the chlorine dioxide gas concentration monitoring was only performed for about 10 hours.
# Penicillium/Aspergillus = assay: Spore trap testing, treated greenhouse: Penicillium/Aspergillus; type: in vivo; details: 1.2 mg chlorine dioxide gas per hour per 4000 cubic feet
# Experimental: as §1, §2, §3
# [7] = 500 ppm foliar spray, all plants, after the fifth application
structure (smiles),measurement,setting,value
[O][Cl+][O-] [chlorine dioxide],Torula spore Count,Torula; 7 Days Post-Treatment,0 per cubic meter
same,Torula spore Count,Torula; 45 Days Post-Treatment,0 per cubic meter
same,foliar or flower tissue damage,"Cannabis plants [1]; 50 ppm chlorine dioxide in water, foliar spray, five applications at 2-day intervals",No foliar or flower tissue damage was visible
same,plants exhibiting damage to leaves,"Cannabis plants [1]; 100 ppm foliar spray, indica-type flowering plants, two days after the 4th application",Two out of the three
same,damage to leaves or flowers,"Cannabis plants [1]; 100 ppm foliar spray, sativa-type flowering plants",None of the sativa-type flowering plants exhibited damage to leaves or flowers
same,visible damage to leaves,"Cannabis plants [1]; 100 ppm foliar spray, vegetative plants of both varieties",exhibited visible damage to leaves following the fourth application
same,smell compared with control plants,Cannabis plants [1]; [7],did not have the same smell as control plants
same,tissue damage,Cannabis plants [1]; [7],exhibited tissue damage after the fifth application
same,leaf damage,"Cannabis plants [1]; 500 ppm foliar spray, all plants, single application",exhibited leaf damage 24 to 48 hours after a single application
same,plants with damage to floral tissue (discoloration),"Cannabis plants [1]; 500 ppm foliar spray, indica-type plants",2 of the 3
same,plants with damage to floral tissue (discoloration),"Cannabis plants [1]; 500 ppm foliar spray, sativa-type plants",1 of the 3
same,Chaetomium spore Count,Chaetomium; 7 Days Post-Treatment,0 per cubic meter
same,Chaetomium spore Count,Chaetomium; 45 Days Post-Treatment,0 per cubic meter
same,Oidium spore Count,Oidium; 7 Days Post-Treatment,13 per cubic meter
same,Oidium spore Count,Oidium; 45 Days Post-Treatment,0 per cubic meter
same,Ulocladium spore Count,Ulocladium; 7 Days Post-Treatment,0 per cubic meter
same,Ulocladium spore Count,Ulocladium; 45 Days Post-Treatment,0 per cubic meter
same,Fusarium spore Count,Fusarium; 7 Days Post-Treatment,0 per cubic meter
same,Fusarium spore Count,Fusarium; 45 Days Post-Treatment,0 per cubic meter
same,Total spore Count,total spores; 7 Days Post-Treatment,320 per cubic meter
same,Total spore Count,total spores; 45 Days Post-Treatment,13 per cubic meter
same,Leaf Count # of new leaves,Cannabis plants [2]; Indica,68 and 36
same,Leaf Count Final,Cannabis plants [2]; Indica,92 and 61
same,Leaf Count # of new leaves,Cannabis plants [2]; Sativa,52
same,Leaf Count Final,Cannabis plants [2]; Sativa,83
same,visible sign of adverse effects,Cannabis plants [2]; 240 cubic feet tent,none of the plants showed any visible sign of adverse effects
same,time of treatment after which the fungus could not be detected by visual inspection,[3],about 30 days
same,Aureobasidium spore Count,Aureobasidium; 7 Days Post-Treatment,0 per cubic meter
same,Aureobasidium spore Count,Aureobasidium; 45 Days Post-Treatment,0 per cubic meter
same,Basidiospores Count,Basidiospores; 7 Days Post-Treatment,53 per cubic meter
same,Basidiospores Count,Basidiospores; 45 Days Post-Treatment,0 per cubic meter
same,Ascospores Count,Ascospores; 7 Days Post-Treatment,27 per cubic meter
same,Ascospores Count,Ascospores; 45 Days Post-Treatment,0 per cubic meter
same,visible mold on the plants after the application,[4],No mold was visible on the plants after the application
same,Short Term Exposure Limit (STEL),[5]; TWA over any 15-minute period,0.3 ppmv
same,OSHA regulated Permissible Exposure Limit (PEL),[5]; time weighted average over 8 hours per day or 40-hour work week,0.1 ppmv
same,Bipolaris/Drechslera spore Count,Bipolaris/Drechslera; 7 Days Post-Treatment,0 per cubic meter
same,Bipolaris/Drechslera spore Count,Bipolaris/Drechslera; 45 Days Post-Treatment,0 per cubic meter
same,Cladosporium spore Count,Cladosporium; 7 Days Post-Treatment,54 per cubic meter
same,Cladosporium spore Count,Cladosporium; 45 Days Post-Treatment,0 per cubic meter
same,Smuts/Myxomycetes spore Count,Smuts/Myxomycetes; 7 Days Post-Treatment,173 per cubic meter
same,Smuts/Myxomycetes spore Count,Smuts/Myxomycetes; 45 Days Post-Treatment,13 per cubic meter
same,Alternaria spore Count,Alternaria; 7 Days Post-Treatment,0 per cubic meter
same,Alternaria spore Count,Alternaria; 45 Days Post-Treatment,0 per cubic meter
same,assessment of the dose,"Cannabis plants [6]; Trial 1, 1.9 mg chlorine dioxide per cubic foot",considered detrimental
same,plant death,"Cannabis plants [6]; Trial 1, 1.9 mg chlorine dioxide per cubic foot, 18 hours",none of the 4 plants died
same,plant damage,"Cannabis plants [6]; Trial 1, 1.9 mg chlorine dioxide per cubic foot, 18 hours, 24-48 hours post-treatment",all 4 plants showed damage in the form of yellowing and chlorosis
same,plant appearance,"Cannabis plants [6]; Trial 1, 1.9 mg chlorine dioxide per cubic foot, immediately following the 18 hours of contact time",the plants still appeared healthy
same,plant damage,"Cannabis plants [6]; Trial 2, 0.45 mg chlorine dioxide per cubic foot, 18 hours, 840 healthy flowering plants",All plants remained healthy and undamaged
same,Penicillium/Aspergillus spore Count,Penicillium/Aspergillus; 7 Days Post-Treatment,0 per cubic meter
same,Penicillium/Aspergillus spore Count,Penicillium/Aspergillus; 45 Days Post-Treatment,0 per cubic meter
